Assays:
IRAK-M = IRAK-M protein stability, cycloheximide chase; type: cell-based; conditions: PIN1-deficient MEFs (text PIN1 KD, Fig. 4g legend PIN1 KO) co-expressing IRAK-M with PIN1 mutant
Description: Fig. 4 PIN1 increases IRAK-M protein stabilization. a After IRAK-M and GFP were coexpressed in WT and PIN1 KO MEFs for 24 h, cells were split equally into 5 dishes. […] The data were analyzed by a Student’s two-tailed t test and the values are reported as mean ± standard errors of the means (SEM). *- statistical significance (P < 0.05), **- significance (P < 0.01)

[1] = tested on: Il6, Csf3, Cxcl2 and Ccl5 expression in DC2.4 cells; test: qRT-PCR of Il6, Csf3, Cxcl2 and Ccl5 in DC2.4 cells; type: cell-based, C57BL/6; conditions: for effect of ATRA on target gene expression: DC2.4, IL-33
Description: Also as indicated, some cells were pretreated for 3 days with 5 μM or 10 μM of ATRA before IL-33 induction. e Relative gene expression of Il6, Csf3, Cxcl2 and Ccl5 in the different samples as in d normalized to actin. f IRAK-M was stably expressed in pLKO or TET on shPin1 expressing cells, followed by induction with IL-33, before western blot to examine protein expression of IRAK-M, PIN1 and tubulin as well as g qRT-PCR to determine the relative gene expression for Il6, Csf3, Cxcl2 and Ccl5 in the different samples.
SYBR Green PCR Master Mix (Applied Biosystems, Foster City, CA) was used for two-step real-time RT-PCR analysis on an Applied Biosystems StepOnePlus Real Time PCR instrument. […] Expression value of the targeted gene in a given sample was normalized to the corresponding expression of Actin. The 2^–ΔΔCt method was used to calculate relative expression of the targeted genes.

[2] = tested on: naive CD4^+ cells co-cultured with BMDCs; test: BMDC / naive CD4+ T cell co-culture TH2 polarization, IL-5 and IL-13 secretion; type: cell-based, C57 B6 mice; conditions: ATRA 5 µM, two days prior to and during co-culture, IL-33 50 ng/ml
Description: Supplementary Figure 7. IRAK-M KO or Pin1 KO derived bone marrow dendritic cells attenuates Naïve TH2 cell differentiation upon IL-33 induction in co culture experiment. Naïve CD4+ T cells isolated from C57 B6 mice were cultured with or without IL-33 (50ng/ml) and BMDCs isolated from WT, IRAK-M KO (a) or Pin1 KO mice (b) in a 1:5 ratio for 5 days with no antigen being added. In some cases as indicated 5 µM of ATRA was added to the medium two days prior to T cell co culturing and during the experiment. Supernatants were analyzed for cytokines on day 5. The data were analyzed by a Student's two-tailed t test and the values are reported as mean ± standard errors of the means (SEM). *- statistical significance (P<0.05), **- significance (P<0.01).

PIN1 = PIN1 expression in DC2.4 cells; type: cell-based, C57BL/6; conditions: ATRA 5 or 10 μM, 3 days pretreatment, before IL-33, DC2.4

## W34A: PIN1 WW domain mutant W34A (binding defective)
IRAK-M
  effect on IRAK-M half-life: neither binding nor isomerizing mutants had any effect

## K63A: PIN1 PPIase domain mutant K63A (catalytically inactive)
IRAK-M
  effect on IRAK-M half-life: neither binding nor isomerizing mutants had any effect

## CC1=C(/C=C/C(C)=C/C=C/C(C)=C/C(=O)O)C(C)(C)CCC1 [ATRA, all-trans retinoic acid]
[1]; ATRA, even at 5 µM, IRAK-M stably expressing DC2.4 cells, IL-33
  target gene expression (Il6, Csf3, Cxcl2, Ccl5): inhibited target gene expression
[1]; IRAK-M mutants S110E and P111A
  effect of ATRA on target gene expression: highly attenuated
[1]; P111A mutant, 10 µM ATRA
  effect of ATRA on target gene expression: completely abolished
[1]; S110E mutant, 10 µM ATRA
  effect of ATRA on target gene expression: some reduction in gene expression still persisted
[2]
  IL-33-induced IL-5 and IL-13 secretion, inhibition by ATRA: significantly attenuated
PIN1
  PIN1 expression: reduced PIN1 expression

From paper PMC5913134, “The IL-33-PIN1-IRAK-M axis is critical for type 2 immunity in IL-33-induced allergic airway inflammation” (Nature Communications, 2018)
